The results in this text go back to patent US9458220B2 (priority 2010, dated 2016).

Where two headings read alike, the source gives them in different places. Primed or numbered codes have the meaning given here. Where no end group is shown, it is not given here. [ ]: non-standard residue; d: D form. PEG8′ = non-peptide PEG linker of 8 ethylene glycol units Where only a bound is given, the exact number is not on record here.

Assay [1] concerns the target IR-B (Homo sapiens, UniProt P06213). Kind of assay: In vitro activity at IR-B relative to native insulin. The class given is cell-based. The note with it: for % Insulin Activity IR-B: Table 17.
Assay [2] deals with IR-A (Homo sapiens, UniProt P06213). As to the kind of experiment: In vitro activity at IR-A relative to native insulin. Type of assay: cell-based.
For assay [3], the target named is T1, human insulin receptor (Homo sapiens, UniProt P06213).
T1 construct: expressed in transfected cells; plasma membrane fragments
As to the kind of experiment: Insulin receptor competition binding assay (scintillation proximity).

The subject of assay [4] is mice. Kind of assay: Comparative insulin tolerance test in mice. The class given is in vivo. The following applies: result in words. As for the experimental part: The activity of the compounds in vivo was also tested by administering the compounds to mice. Food was removed four hours prior to administering peptide to normal mice and withheld for the duration of the study. Glucose was measured just prior to administration of test compounds and at 1, 2, 3, 6 and 8, 12, 16, 20 and 24 hours after administration. […] FIGS. 29B and 29C provide data on blood glucose concentrations over 8 hours after administration of the listed analogs.
The compounds were tested at two different concentrations (27 nmol/kg and 90nmol/kg).
This single chain analog comprises a 20 kDa PEG linked to the side chain of the single lysine residue in the linking moiety (PEG8-K-PEG4) that joins the A chain and the B chain. […] FIGS. 33C and 33D show the blood glucose AUC24 hrs in mice administered Detemir and MIU-56, respectively.

Assay [5] deals with IGF-1 R (Homo sapiens, UniProt P08069). Kind of assay: In vitro activity at IGF-1 R relative to native insulin. The following applies: for % Insulin Activity IGF-1 R: Table 17. Type of assay: cell-based.
Assay [6] has as its target T2, human IGF-1 receptor (Homo sapiens, UniProt P08069).
T2 construct: expressed in transfected cells; plasma membrane fragments
Kind of assay: IGF-1 receptor competition binding assay (scintillation proximity). The note with it: Table 9. (Scintillation proximity formats need no separation of bound from free tracer.)

As for “B1, A14-10K B^1(H5, 10Y16L17R29)30-C^1des9-12-A^1(H8, K14, N18, 21) (GPEHLCGAHLVDALYLVCGDRGFYFNKRTGYGSSSRRGIVDECCHRSCDLKRLENYCN) [MIU-79]”, the IR-B in assay [1] (Table 19) was 0.2%. The molecule also returned an IR-A in assay [2] (Table 19) of 1.7%.

As for “B^1(H5, 10Y16L17R29)30-C^1des9-12-A^1(H8, K14, N18, 21) (GPEHLCGAHLVDALYLVCGDRGFYFNKRTGYGSSSRRGIVDECCHRSCDLKRLENYCN) [DP8Mut3KA14]”, in assay [1] (Table 19), the IR-B turned out to be 12.6%. The molecule also registered an IR-A in assay [2] (Table 19) of 132.2%.

On to `CC[C@H](C)[C@H](NC(=O)CNC(=O)[C@@H]1CCCN1C(=O)[C@H](C)N)C(=O)N[C@H](C(=O)N[C@@H](CC(=O)O)C(=O)N[C@@H](CCC(=O)O)C(=O)N[C@H]1CSSC[C@@H]2NC(=O)[C@H](CO)NC(=O)[C@H](CCCNC(=N)N)NC(=O)[C@H](Cc3ccccc3)NC(=O)[C@H](CSSC[C@H](NC(=O)[C@H](CC(C)C)NC(=O)[C@@H](NC(=O)[C@H](CCC(=O)O)NC(=O)[C@@H]3CCCN3C(=O)CN)[C@@H](C)O)C(=O)NCC(=O)N[C@@H](C)C(=O)N[C@@H](CCC(=O)O)C(=O)N[C@@H](CC(C)C)C(=O)N[C@@H](C(C)C)C(=O)N[C@@H](CC(=O)O)C(=O)N[C@@H](C)C(=O)N[C@@H](CC(C)C)C(=O)N[C@@H](Cc3ccc(O)cc3)C(=O)N[C@@H](CC(C)C)C(=O)N[C@@H](C(C)C)C(=O)N[C@H](C(=O)NCC(=O)N[C@@H](CC(=O)O)C(=O)N[C@@H](CCCNC(=N)N)C(=O)NCC(=O)N[C@@H](Cc3ccccc3)C(=O)N[C@@H](Cc3ccc(O)cc3)C(=O)N[C@@H](Cc3ccccc3)C(=O)N[C@@H](CC(N)=O)C(=O)N[C@@H](CCCCN)C(=O)N3CCC[C@H]3C(=O)N[C@H](C(N)=O)[C@@H](C)O)CSSC[C@@H](C(=O)N[C@@H](C)C(N)=O)NC(=O)[C@H](Cc3ccc(O)cc3)NC(=O)[C@H](CCSC)NC(=O)[C@H](CCC(=O)O)NC(=O)[C@H](CC(C)C)NC(=O)[C@H](CCCNC(=N)N)NC(=O)[C@H](CCCNC(=N)N)NC(=O)[C@H](CC(C)C)NC(=O)[C@H](CC(=O)O)NC2=O)NC1=O)C(C)C` [IGF1(Y^B16L^B17)(AlaPro)^A-1, 0], for which the “% of Insulin Activity” value in assay [3] (Table 8) is listed as 37.12%.

The molecule “B1, A14-10K B^1(H5, 10Y16L17R29)29: A^1(H8K14N18, 21) (chain 1 GPEHLCGAHLVDALYLVCGDRGFYFNKR; chain 2 GIVDECCHRSCDLKRLENYCN) [di-10K-TC]” came in with an IR-B in assay [1] (Table 19) of 2.1%. In addition, in assay [2] (Table 19), the IR-A stood at 6.4%.

Molecule “B^1(H5, 10Y16L17K29)29: A^1(H8, N18, 21) [DP3(TC)]” had an IR-B in assay [1] (Table 19) of 33.1%. The same molecule had an IR-A in assay [2] (Table 19) of 159.8%.

With “B^1(H5,H10,Y16,L17)25a: A^1(H8,rEC16-K14,N18,N21) [MIU-41]”, in assay [4], the “ability to reduce and sustain low blood glucose” value is “more basal and sustained lowered glucose levels relative to native insulin”.

As to “B^1(A5H10Y16L17)25-C^1-A^1(H8N18N21) [Ala, B5]”, in assay [5] (Table 18), the “IGF-1 R” value came to 2.5%. In addition, in assay [1] (Table 18), the IR-B came out at 5.7%.

Consider “B^1(H5,H10,Y16,L17)25-C^1-A^1(H8,N18,N21) (GPEHLCGAHLVDALYLVCGDRGFYGYGSSSRRAPQTGIVDECCHRSCDLRRLENYCN) [MIU-35]”, for which the “% Insulin Activity IGF-1 R” value in assay [5] was 3.2%. The “IGF-1 R” value in assay [5] (Table 18) was found to be 3.2%. The molecule also gave an IR-B in assay [1] (Table 18) of 17.4%. The molecule also had an IR-A in assay [2] (Table 18) of 61.4%.

For the molecule “B^1(H5, 10Y16L17)25-C^1-A^1(T8N18, 21) (GPEHLCGAHLVDALYLVCGDRGFYGYGSSSRRAPQTGIVDECCTRSCDLRRLENYCN) [Thr, A8]”, the “IGF-1 R” value in assay [5] (Table 18) amounted to 3.7%. In addition, in assay [1] (Table 18), the IR-B was 8.4%. In assay [2] (Table 18), this molecule displayed an IR-A of 20.4%.

Molecule “B1-20K B^1(H5, 10Y16L17K29)29: A^1(H8N18, 21) [MIU-78]” yielded an IR-B in assay [1] of 3.2%. Also, in assay [2], the IR-A was 8.2%.

Take “B^1(H5,Y16,L17)25-C^1(K8)-A^1(N18,21) (GPEHLCGAELVDALYLVCGDRGFYGYGSSSRKAPQTGIVDECCFRSCDLRRLENYCN) [MIU-67, two 10K PEG chains, at the N-terminus and at position C8]”: the “ability to reduce and sustain low blood glucose” value in assay [4] was “roughly equivalent to MIU-59 administered at 40 nmol/kg”. The “% Insulin Activity IGF-1 R” value in assay [5] is listed as less than 0.1%. Further, in assay [1], the “% Insulin Activity IR-B” value was 0.1%.

For “GE5W-B^1(A5H10Y16L17)25-C^1-A^1(H8N18N21) [GE5W-Ala, B5]”, the “IGF-1 R” value in assay [5] (Table 18) turned out to be 0.3%. The IR-B in assay [1] (Table 18) worked out at 2.3%. In assay [2] (Table 18), the IR-A amounted to 8.6%.

In assay [5] (Table 19), “B^1(H5, 10Y16L17R29)30-C^1des9-12-A^1(H8, N18, 21) (GPEHLCGAHLVDALYLVCGDRGFYFNKRTGYGSSSRRGIVDECCHRSCDLRRLENYCN) [MIU-43]” had an IGF-1 R of 14.2%. The molecule also yielded an IR-B in assay [1] (Table 19) of 16.7%. Moreover, in assay [2] (Table 19), the IR-A amounted to 97.5%.

For the molecule “B^1(H5,Y16,L17, K22)25-C^1(K8)-A^1(N18,21) (GPEHLCGAELVDALYLVCGDKGFYGYGSSSRKAPQTGIVDECCFRSCDLRRLENYCN) [MIU-68, two 10K PEG chains, at the N-terminus and at amino acid B22]”, the “% Insulin Activity IGF-1 R” value in assay [5] is less than 0.1%. Further, in assay [1], the “% Insulin Activity IR-B” value was 0.1%.

As to “B^1(H5, 10Y16L17A24)25-C^1-A^1(H8N18, N21) [Ala, B24]”, the “IGF-1 R” value in assay [5] amounted to 0.3%. This molecule returned an IR-B in assay [1] of 0.4%. This molecule also came in with an IR-A in assay [2] of 0.1%.

Turning to `CC[C@H](C)[C@H](NC(=O)CN)C(=O)N[C@H](C(=O)N[C@@H](CC(=O)O)C(=O)N[C@@H](CCC(=O)O)C(=O)N[C@H]1CSSC[C@@H]2NC(=O)[C@H](CO)NC(=O)[C@H](CCCNC(=N)N)NC(=O)[C@H](Cc3ccccc3)NC(=O)[C@H](CSSC[C@H](NC(=O)[C@H](CC(C)C)NC(=O)[C@@H](NC(=O)[C@H](CCC(=O)O)NC(=O)[C@@H]3CCCN3C(=O)CN)[C@@H](C)O)C(=O)NCC(=O)N[C@@H](CO)C(=O)N[C@@H](Cc3c[nH]cn3)C(=O)N[C@@H](CC(C)C)C(=O)N[C@@H](C(C)C)C(=O)N[C@@H](CCC(=O)O)C(=O)N[C@@H](C)C(=O)N[C@@H](CC(C)C)C(=O)N[C@@H](Cc3ccc(O)cc3)C(=O)N[C@@H](CC(C)C)C(=O)N[C@@H](C(C)C)C(=O)N[C@H](C(=O)NCC(=O)N[C@@H](CC(=O)O)C(=O)N[C@@H](CCCNC(=N)N)C(=O)NCC(=O)N[C@@H](Cc3ccccc3)C(=O)N[C@@H](Cc3ccc(O)cc3)C(=O)N[C@@H](Cc3ccccc3)C(=O)N[C@@H](CC(N)=O)C(=O)N[C@@H](CCCCN)C(=O)N3CCC[C@H]3C(=O)N[C@H](C(N)=O)[C@@H](C)O)CSSC[C@@H](C(=O)N[C@@H](C)C(N)=O)NC(=O)[C@H](Cc3ccc(O)cc3)NC(=O)[C@H](CCSC)NC(=O)[C@H](CCC(=O)O)NC(=O)[C@H](CC(C)C)NC(=O)[C@H](CCCNC(=N)N)NC(=O)[C@H](CCCNC(=N)N)NC(=O)[C@H](CC(C)C)NC(=O)[C@H](CC(=O)O)NC2=O)NC1=O)C(C)C`, in assay [3] (Table 9), the “Insulin Receptor % insulin (in test)” value is listed as 19.1% and the “Insulin Receptor % native insulin activity (0.6 nM)” value was 37.7%. Further, in assay [3] (Table 9, IGF-1 receptor IC50 over insulin receptor IC50), the Ratio was 22.6. For the same molecule, the “IGF-1 Receptor % IGF-1 (in test)” value in assay [6] is 0.3%.

Consider “B^1(H5,H10,Y16,L17,C16rE-K22)25a: A^1(N18,N21) [MIU-37]”, for which the “ability to reduce and sustain low blood glucose” value in assay [4] is “more basal and sustained lowered glucose levels relative to native insulin”.

In the case of “B^1(H5, 10Y16L17K29)29-A^1(H8, N18, 21) [DP3(SC)]”, in assay [2] (Table 19), the IR-A is reported as 0.03%.

As to “B^1(H5,Y16,L17)25-C^1(K8)-A^1(K14, N18,21) (GPEHLCGAELVDALYLVCGDRGFYGYGSSSRKAPQTGIVDECCFRSCDLKRLENYCN) [MIU-69, two 10K PEG chains, at the N-terminus and at amino acid A14]”, in assay [5], the “% Insulin Activity IGF-1 R” value is less than 0.1%.

Regarding “C8-PEG20K B^1(H5, Y16, L17)25-PEG8-K-PEG4-A^1(N18, N21) (GPEHLCGAELVDALYLVCGDRGFY[PEG8′]KGIVDECCFRSCDLRRLENYCN; not fully specified (some residues, bridges); ends and bridges not checked) [MIU-56]”, the “ability to reduce and sustain low blood glucose” value in assay [4] is “sustained duration of action for 24 hours”.

Consider “B^1(C16-K0,H5,H10,Y16,L17)25a: A^1(N18,N21) [MIU-36]”, for which the “ability to reduce and sustain low blood glucose” value in assay [4] is “more basal and sustained lowered glucose levels relative to native insulin”.

“B1-20K B^1(H5, 10Y16L17K29)29-A^1(H8N18, 21) [MIU-77]”: in assay [2], the IR-A is recorded as 0.1% and the “activity at the insulin type-A receptor on addition of a 20 kDa PEG” value was approximately 100 fold.

B1: GE5W-B^1(H5, 10Y16L17)25-C^1-A^1(A1H8N18, 21) (peptide)
chain: GEEEEEWGPEHLCGAHLVDALYLVCGDRGFYGYGSSSRRAPQTAIVDECCHRSCDLRRLENYCN
Regarding B1, the “IGF-1 R” value in assay [5] (Table 18) stood at 0.5%. For the same molecule, in assay [1] (Table 18), the IR-B was 0.7%. For the same molecule, in assay [2] (Table 18), the IR-A worked out at 2.1%.
